Reference: US7632862B2, “Pharmaceutical compositions that modulate HPTPbeta activity” (Procter & Gamble Company, priority 2002, dated 2009)

Key:
HEK293H cells = assay: In-cell phosphatase activity (DiFMUP) in HPTPbeta-transfected HEK293H cells; format: cell-based, human; settings: 500 μM, 15 minutes pre-incubation
Method: For phosphatase activity in human embryonic kidney cells, HEK293H (Gibco) are grown in suspension in 293SFM media (Gibco) and transfected on 100 mm dishes using LIPOFECTAMINE™ 2000 (Invitrogen), a proprietary formulation for the transfection of nucleic acids (DNA and RNA) into eukaryotic cells. After 24 hours cells are resuspended transferred back to shaker flasks for an additional 24 hours. Phosphatase activity is measured using DiFMUP in 96 well plates as above with 100,000 cells/well. For inhibition of tyrosine phosphatases, the cells are pre-incubated with Bis-maloalto-organovanadium (BMOV) for 15 minutes prior to the addition of DIFMUP. HPTPbeta protein expression is confirmed after each experiment in parallel plates by western blotting.

HUVEC = assay: In-cell phosphatase activity (DiFMUP) in HPTPbeta adenovirus infected HUVECs; format: cell-based, human; settings: 500 μM
Method: In cell phosphatase assays are accomplished by infecting Human Umbilical Vein Endothelial Cells with HPTPbeta, GFP, or Empty adenovirus in 100 mm dishes for 24 hours. Infected cells were trypsinized and re-plated at 5,000 cells/well in a 96 well plate and allowed to attach for 2 hours in complete growth medium (EGM). Complete medium was replaced with Hanks Buffered Saline (HBSS, Gibco) and substrate fluorescence are measured 15 minutes after the addition of 100 uM DiFMUP substrate (Molecular Probes) using a Victor V plate reader as mentioned in Example 2.

[1] = tested on: panel of recombinant phosphatases; assay: Selectivity against a panel of recombinant phosphatases; format: biochemical; settings: all panel phosphatases except the closely related HPTPeta
Method: FIG. 10. Compound 1 ((R)-[1-Methylcarbamoyl-2-(4-sulfoamino-phenyl)-ethyl]-carbamic acid tert-butyl ester) is a selective HPTPbeta inhibitor. Compound 1 was assayed for inhibition of a panel of recombinant phosphatases essentially as described in Example 2 for HPTPbeta. This compound was at least 10 fold selective for HPTPbeta over the other phosphatases tested except for the closely related HPTPeta.
Methods: The potency of a class of HPTPbeta inhibitors was optimized by iterative screening for inhibition of HPTPbeta activity measured as described in Example 2. […] To determine selectivity, compound 1 was tested against a panel of several other recombinant phosphatases (FIG. 10). VEGFR2 and Tie-2 receptor activation was assayed as mentioned in example 4. However, to assess the effect of the HPTPbeta inhibitor, the cells were pretreated for 30 minutes prior to stimulation with either 0.1 mM or 1 mM Compound 1 in Opti-MEM media (Invitrogen) at 37° C./5% CO2. Results: A potent and selective HPTPbeta inhibitor (Compound 1) was developed (see Example 11) as an agent to enhance the activation of VEGFR2 and Tie2 (FIG. 10). Compound was at least 10 fold selective for HPTPbeta versus the any of the other phosphatases except for the closely related HPTPeta. […] Clearly, these assays could be used to optimize the potency and selectivity and to test the efficacy of other HPTPbeta inhibitors.

VEGFR2 = assay: Ligand-induced VEGFR2 phosphorylation in endothelial cells (anti-phosphotyrosine western blot); format: cell-based, human; settings: endothelial cells pretreated 30 minutes with 0.1 mM or 1 mM; vs vehicle; p<0.05
Method: (§1) VEGFR2 and Tie-2 receptor phosphorylation is assayed by anti-phosphotyrosine western blotting following immunoprecipitation of the receptors from endothelial cells or receptor transfected 293 cells. Briefly, endothelial cells (HUVEC's) are plated on 100 mm dishes, stimulated with a dose range of either recombinant VEGF165 or recombinant Angiopoietin-1 (R&D Systems, resuspended in PBS containing 0.2% bovine serum albumin) for 5 or 7 minutes, respectively. […] Signal is detected using HRP labeled secondary antibodies and ECL solution (Amersham). […] Resulting films are scanned and quantitated using Quantity-One software (Bio-Rad) and results reported as the amount of phosphotyrosine signal over receptor signal (P-Tyr/Receptor).
(§2) Transfection in HUVEC's is performed with the above-mentioned antisense oligos at a 200 nM final concentration using LIPOFECTIN™ (Invitrogen), a reagent for transfectin of endothelial cells and transfection of DNA or RNA into cell lines, in OPTIMEM™-I (Gibco), a modification of Eagles Minimum Essential Medium, buffered with HEPES and sodium bicarbonate (2.4 g/L) and supplemented with hypoxanthine, thymidine, sodium pyruvate, L-glutamine, trace elements, and growth factors, according to the manufacturers instructions. […] Uptake efficiency is monitored in every transfection using a fluorescently labeled oligonucleotide and determined to be >90% in every experiment.” […]

Tie-2 = assay: Ligand-induced Tie-2 phosphorylation in endothelial cells (anti-phosphotyrosine western blot); format: cell-based, human; settings: endothelial cells pretreated 30 minutes with 0.1 mM or 1 mM; vs vehicle; p<0.05
Method: as §1, §2

[2] = tested on: Human umbilical vein endothelial cells (HUVEC); assay: Endothelial cell survival (CellTiter-Glo); format: cell-based; settings: 500 μM compound
Method: Methods: Human umbilical vein endothelial cells (HUVEC, Clonetics) were seeded at 10,000/well in a 96-well plate for 2 hours in EGM media (Clonetics). The cells were then serum-deprived for 2 hours in DMEM (Invitrogen) supplemented with 0.2% bovine serum albumin. Quadruplicate wells were then treated with either vehicle or 500 μM Compound in the presence or absence of either 500 pM recombinant human VEGF165 or 250 ng/mL recombinant human Angiopoietin-1 (Ang-1) (R&D Systems) for 72 hours in DMEM supplemented with 0.2% bovine serum albumin. Cells remaining after incubation were detected using the CellTiter-Glo™ System according to the manufacturers instructions (Promega) and measured using a Victor V plate reader (Perkin Elmer/Wallac).

[3] = tested on: Rat thoracic aortic rings; assay: Rat aortic ring explant angiogenesis assay; settings: 100 μM and 300 μM; p<0.05 vs control
Method: Methods: The isolated rat aortic ring model of angiogenesis is performed using the thoracic aorta from 150-175 gram, male Sprague-Dawley rats (Charles River). The excised thoracic aorta is placed in sterile saline solution and transferred to endothelial basal media (EBM, Clonetics) containing 1% antibiotics/antimycotic (Gibco BRL). Periadventitial fibroadipose tissue and any visible blood clots were removed. Aortas are cross-sectioned at ˜1 mm intervals and the resulting tissues placed in 100 μl of Dulbecco's Modified Eagle Medium (DMEM) containing 2% FBS, in the presence or absence of adenovirus for green fluorescent protein, empty virus or HPTPbeta (all at 1.0×10^11 virus particles/ml), as described. Rings are incubated for 30 minutes at 37° C. in a humidified incubator under a constant 5% CO2 atmosphere. Following adenoviral infection, aortic rings were washed with EBM and placed in a 24-well tissue culture plate. Aortic rings are overlaid with 450 μl of collagen solution consisting of 8 volumes of 3 mg/ml rat tail collagen (Sigma) in 0.1% acetic acid, 1 volume of 10× M-199 supplemented with 100 mg/ml L-glutamine, and 1 volume of 10× collagen buffer (0.0SN NaOH, 200 mM HEPES, 260 mM NaHCO3). […] Images (TIFF) are taken using a SPOT camera connected to a Nikon inverted microscope and analyzed (vessel extent and area) using automated image analysis software. […]

HPTPbeta = target: T1, HPTPbeta (Homo sapiens, UniProt P23467); assay: Inhibition of recombinant HPTPbeta phosphatase activity (DiFMUP substrate); format: biochemical; settings: assay as in Example 2
T1 construct: GST (N, cleaved yes); His6 (C); made in house; host or cells: E. coli BL21-RIL
Method: Methods: Expression and purification of recombinant HPTPbeta catalytic domain [SEQ ID NO: 16] is accomplished by subcloning the intracellular domain of HPTPbeta (cDNA clone starting at the codon for amino acid 1662 through the stop codon) into the pGEX4T1 vector (Pharmacia) and expressed as a GST-fusion protein in E. coli BL21-RIL cells (Stratagene). Induced cells are thawed on ice and resuspended in 20 mM Tris-HCl, pH=8.0, 1% Trition x-100, 2 mM DTT and EDTA-free protease inhibitor cocktail. 10 mg/ml lysozyme is added and cells are lysed by sonication. The cell debris is pelleted using the Beckman J2-MI at 17,000 rpm. The supernatant is added to prepared glutathione sepharose 4B resin batch method. After binding, the column is poured and packed with the resin/protein mixture and then washed. […]
Measurements of recombinant phosphatase activity are performed using the substrate DiFMUP (6,8-difluoro-4-methylumbelliferyl phosphate) from Molecular Probes. […] Measurements of increased substrate fluorescence, indicative of phosphatase activity, are observed at an excitation wavelength of 355 nm and an emission wavelength of 460 nm using a Victor V plate reader (Wallac).
Methods: The potency of a class of HPTPbeta inhibitors was optimized by iterative screening for inhibition of HPTPbeta activity measured as described in Example 2. […]

T1 sequence (P23467 with tags, fused parts or gaps): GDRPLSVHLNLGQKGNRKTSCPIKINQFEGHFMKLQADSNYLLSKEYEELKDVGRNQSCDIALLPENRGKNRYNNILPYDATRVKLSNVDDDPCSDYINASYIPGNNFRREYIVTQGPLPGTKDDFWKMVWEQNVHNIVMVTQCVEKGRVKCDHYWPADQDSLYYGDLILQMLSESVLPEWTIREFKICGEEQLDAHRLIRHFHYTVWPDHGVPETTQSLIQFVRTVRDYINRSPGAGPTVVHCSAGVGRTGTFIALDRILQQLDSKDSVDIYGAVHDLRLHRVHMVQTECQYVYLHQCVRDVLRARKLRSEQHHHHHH

Structure (SMILES) | phosphatase activity in HEK293H cells (HEK293H cells) | phosphatase activity in HUVEC's (HUVEC) | selectivity for HPTPbeta over the other phosphatases tested [1] | ligand stimulated tyrosine phosphorylation of VEGFR2 (VEGFR2) | ligand stimulated tyrosine phosphorylation of Tie-2 (Tie-2) | cell survival with VEGF165 stimulation ([2]; 500 pM VEGF165, 72 hours, vs vehicle) | cell survival with Ang-1 stimulation ([2]; 250 ng/mL Ang-1, 72 hours, vs vehicle) | basal cell survival ([2]; no ligand, vs untreated controls) | vessel area [3] | vessel extent [3] | potency of inhibition of HPTPbeta activity (HPTPbeta)
Cc1occc(=O)c1[O-].Cc1occc(=O)c1[O-].[O]=[V+2] [BMOV, Bis-maloalto-organovanadium] | inhibited | inhibited | – | – | – | – | – | – | – | – | –
CNC(=O)C(Cc1ccc(NS(=O)(=O)O)cc1)NC(=O)OC(C)(C)C (stereo in doubt) [Compound 1, (R)-[1-Methylcarbamoyl-2-(4-sulfoamino-phenyl)-ethyl]-carbamic acid tert-butyl ester] | – | – | at least 10 fold | increased | increased | increased cell survival | increased cell survival | increased basal levels of survival | significant increases | significant increases | nanomolar
